Source: ChEMBL document CHEMBL5390253, “Discovery of Selective and Potent Macrocyclic CDK9 Inhibitors for the Treatment of Osimertinib-Resistant Non-Small-Cell Lung Cancer” (J Med Chem, 2023)
pIC50: −log10 of the molar value. Converted amounts (≈) assume the structure as drawn.

What was measured:
PC-9 = test: Antiproliferative activity against human PC-9 cells incubated for 72 hrs by MTT assay; format: functional, cell-based; settings: PC-9, 72 h
[1] = Induction of apoptosis in human Osimertinib-resistant NCI-H1975 cell assessed as necrotic cells at 125 nM measured after 16 hrs in presence of osimertinib by Annexin V-FITC and PI staining based analysis (reference value: 0.50%); format: functional
[2] = Toxicity in ICR mouse assessed as morphological changes in lung at 1000 mg/kg, po measured after 9 days by H and E staining based analysis; format: organism-based; settings: in vivo, 216 h, time 9 day
[3] = target: CDK1/Cyclin A (Homo sapiens) (UniProt P06493+P20248); test: Inhibition of CDK1/Cyclin A2 (unknown origin) at 200 nM preincubated for 10 mins followed by substrate addition and measured after 60 mins in presence of ATP by ADP-Glo reagent based assay relative to control; format: protein-complex assay; settings: time 70.0 min
CDK1/Cyclin A (Homo sapiens), sequence (P06493 whole entry, looked up): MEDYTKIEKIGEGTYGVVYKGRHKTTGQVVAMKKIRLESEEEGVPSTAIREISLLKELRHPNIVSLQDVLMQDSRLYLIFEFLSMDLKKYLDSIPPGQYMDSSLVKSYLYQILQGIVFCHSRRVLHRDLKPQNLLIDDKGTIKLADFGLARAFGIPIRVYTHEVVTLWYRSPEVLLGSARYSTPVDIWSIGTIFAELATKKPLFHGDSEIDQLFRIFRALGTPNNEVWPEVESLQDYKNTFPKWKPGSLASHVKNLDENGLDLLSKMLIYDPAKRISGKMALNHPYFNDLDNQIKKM
CDK1/Cyclin A (Homo sapiens), sequence (P20248 whole entry, looked up): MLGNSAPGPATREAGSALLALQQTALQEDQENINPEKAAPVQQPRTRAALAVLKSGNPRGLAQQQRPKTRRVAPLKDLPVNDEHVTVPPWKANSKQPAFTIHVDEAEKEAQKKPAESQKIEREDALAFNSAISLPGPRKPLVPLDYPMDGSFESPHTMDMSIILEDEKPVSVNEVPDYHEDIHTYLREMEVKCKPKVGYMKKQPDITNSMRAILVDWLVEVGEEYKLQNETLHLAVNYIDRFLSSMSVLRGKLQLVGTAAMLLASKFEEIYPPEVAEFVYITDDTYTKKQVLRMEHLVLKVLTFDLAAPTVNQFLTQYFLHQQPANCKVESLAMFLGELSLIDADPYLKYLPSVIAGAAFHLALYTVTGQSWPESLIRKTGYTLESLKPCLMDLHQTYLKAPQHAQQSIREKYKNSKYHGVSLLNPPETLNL

[4] = target: CDK6/cyclin D3 (Homo sapiens) (UniProt P30281+Q00534); test: Inhibition of CDK6/cyclin D3 (unknown origin) at 200 nM preincubated for 10 mins followed by substrate addition and measured after 60 mins in presence of ATP by ADP-Glo reagent based assay relative to control; format: protein-complex assay; settings: time 70.0 min
[5] = system: Osimertinib-resistant HCC827AR cell; test: Inhibition of cell growth in 3D-cultured human Osimertinib-resistant HCC827 cell by DAPI and PI staining based analysis; format: functional; settings: dose 0.049-3.125 µM
A549 = test: Antiproliferative activity against human A549 cells incubated for 72 hrs by MTT assay; format: functional, cell-based; settings: A549, 72 h
[6] = Solubility of the compound in water at pH 7.4 by shake flask method; format: physicochemical
[7] = target: Dual specificity tyrosine-phosphorylation-regulated kinase 1A (Homo sapiens) (UniProt Q13627); test: Inhibition of DYRK1A (unknown origin) at 100 nM preincubated for 10 mins followed by substrate addition and measured after 60 mins in presence of ATP by ADP-Glo reagent based assay relative to control; settings: time 70.0 min
[8] = Oral bioavailability in Sprague-Dawley rat at 20 mg/kg measured upto 24 hrs; format: ADME, organism-based; settings: in vivo
[9] = Antiproliferative activity against human Osimertinib-resistant NCI-H1975 cell assessed as cell growth inhibition incubated for 72 hrs in presence of osimertinib by MTT assay; format: functional, cell-based; settings: NCI-H1975, 72 h
[10] = Toxicity in ICR mouse assessed as abnormalities in lung at 1000 mg/kg, po measured after 9 days by H and E staining based analysis; format: organism-based; settings: in vivo, 216 h, time 9 day
[11] = Antiproliferative activity against 3D-cultured human Osimertinib-resistant NCI-H1975 cell incubated for 72 hrs by MTT assay; format: functional, cell-based; settings: NCI-H1975, 72 h
[12] = Inhibition of colony formation in human Osimertinib-resistant NCI-H1975 cell assessed as inhibition of cell growth at 125 nM measured after 2 weeks by crystal violet staining based analysis relative to control; format: functional; settings: NCI-H1975, 336 h
cells = settings: Homo sapiens, Osimertinib-resistant HCC827AR cell, 72 h
[13] = target: CDK6/cyclin D1 (Homo sapiens) (UniProt P24385+Q00534); test: Inhibition of CDK6/cyclin D1 (unknown origin) at 200 nM preincubated for 10 mins followed by substrate addition and measured after 60 mins in presence of ATP by ADP-Glo reagent based assay relative to control; format: protein-complex assay; settings: time 70.0 min
[14] = target: CDK4/Cyclin D3 (Homo sapiens) (UniProt P11802+P30281); test: Inhibition of CDK4/Cyclin D3 (unknown origin) at 200 nM preincubated for 10 mins followed by substrate addition and measured after 60 mins in presence of ATP by ADP-Glo reagent based assay relative to control; format: protein-complex assay; settings: time 70.0 min
[15] = Toxicity in ICR mouse assessed as morphological changes in liver at 1000 mg/kg, po measured after 9 days by H and E staining based analysis; format: organism-based; settings: in vivo, 216 h, time 9 day
[16] = Induction of apoptosis in human Osimertinib-resistant NCI-H1975 cell assessed as necrotic cells at 2000 nM measured after 16 hrs by Annexin V-FITC and PI staining based analysis (reference value: 0.50%); format: functional
[17] = Induction of apoptosis in human Osimertinib-resistant NCI-H1975 cell assessed as early apoptotic cells at 2000 nM measured after 16 hrs by Annexin V-FITC and PI staining based analysis (reference value: 1.78%); format: functional
[18] = Antitumor activity against patient derived #2422 lung cancer organoid assessed as inhibition of growth measured after 4 days; format: functional, tissue-based; settings: Homo sapiens, 96 h
[19] = target: Receptor-type tyrosine-protein kinase FLT3 (Homo sapiens) (UniProt P36888); test: Inhibition of FLT3 (unknown origin) at 100 nM preincubated for 10 mins followed by substrate addition and measured after 60 mins in presence of ATP by ADP-Glo reagent based assay relative to control; settings: time 70.0 min
Receptor-type tyrosine-protein kinase FLT3 (Homo sapiens), sequence (P36888 whole entry): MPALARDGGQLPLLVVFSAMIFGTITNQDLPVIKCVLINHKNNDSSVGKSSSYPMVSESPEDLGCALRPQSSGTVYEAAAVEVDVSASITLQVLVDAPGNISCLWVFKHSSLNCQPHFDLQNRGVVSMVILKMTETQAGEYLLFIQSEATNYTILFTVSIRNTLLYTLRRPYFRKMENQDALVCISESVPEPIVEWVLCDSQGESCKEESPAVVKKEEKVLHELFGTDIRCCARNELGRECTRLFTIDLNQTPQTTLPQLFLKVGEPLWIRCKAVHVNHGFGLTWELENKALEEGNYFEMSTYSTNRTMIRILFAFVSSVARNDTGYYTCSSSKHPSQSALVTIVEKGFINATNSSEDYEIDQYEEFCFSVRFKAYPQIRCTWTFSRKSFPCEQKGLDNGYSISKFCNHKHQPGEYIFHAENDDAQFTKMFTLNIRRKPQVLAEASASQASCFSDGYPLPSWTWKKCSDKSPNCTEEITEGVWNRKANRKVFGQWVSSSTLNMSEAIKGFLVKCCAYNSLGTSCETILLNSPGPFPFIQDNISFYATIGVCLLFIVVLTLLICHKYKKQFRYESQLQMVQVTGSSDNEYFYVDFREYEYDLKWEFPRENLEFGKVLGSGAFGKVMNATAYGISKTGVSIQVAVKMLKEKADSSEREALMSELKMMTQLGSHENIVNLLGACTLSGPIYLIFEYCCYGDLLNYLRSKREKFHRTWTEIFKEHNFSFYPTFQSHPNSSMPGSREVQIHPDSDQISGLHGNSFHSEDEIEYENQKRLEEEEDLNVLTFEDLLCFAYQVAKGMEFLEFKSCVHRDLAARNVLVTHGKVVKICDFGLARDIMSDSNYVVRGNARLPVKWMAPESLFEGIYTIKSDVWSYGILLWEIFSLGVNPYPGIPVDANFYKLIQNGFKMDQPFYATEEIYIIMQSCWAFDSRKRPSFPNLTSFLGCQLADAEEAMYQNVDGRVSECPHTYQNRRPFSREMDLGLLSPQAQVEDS

[20] = Induction of apoptosis in human Osimertinib-resistant NCI-H1975 cell assessed as late apoptotic cells at 2000 nM measured after 16 hrs by Annexin V-FITC and PI staining based analysis (reference value: 2.84%); format: functional
[21] = Induction of apoptosis in human Osimertinib-resistant NCI-H1975 cell assessed as viable cells at 125 nM measured after 16 hrs by Annexin V-FITC and PI staining based analysis (reference value: 94.9%); format: functional; settings: read-out: Activity
[22] = target: Dual specificity protein kinase CLK1 (Homo sapiens) (UniProt P49759); test: Inhibition of CLK1 (unknown origin) at 500 nM preincubated for 10 mins followed by substrate addition and measured after 60 mins in presence of ATP by ADP-Glo reagent based assay relative to control; settings: time 70.0 min
Dual specificity protein kinase CLK1 (Homo sapiens), sequence (P49759 whole entry, looked up): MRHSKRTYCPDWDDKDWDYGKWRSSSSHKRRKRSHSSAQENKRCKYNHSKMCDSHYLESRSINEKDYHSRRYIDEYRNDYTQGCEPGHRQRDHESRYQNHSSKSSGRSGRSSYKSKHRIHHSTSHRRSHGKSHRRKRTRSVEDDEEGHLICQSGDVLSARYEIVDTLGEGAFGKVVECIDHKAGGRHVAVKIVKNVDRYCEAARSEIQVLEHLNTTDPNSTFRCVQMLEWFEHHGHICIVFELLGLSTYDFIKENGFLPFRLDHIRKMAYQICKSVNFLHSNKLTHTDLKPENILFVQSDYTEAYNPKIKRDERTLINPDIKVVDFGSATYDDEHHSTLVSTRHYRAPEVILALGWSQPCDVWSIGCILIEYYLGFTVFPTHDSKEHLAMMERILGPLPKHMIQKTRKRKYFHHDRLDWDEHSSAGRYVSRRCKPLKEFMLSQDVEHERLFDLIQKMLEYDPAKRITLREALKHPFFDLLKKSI

[23] = target: CDK2/Cyclin A2 (Homo sapiens) (UniProt P24941+P20248); test: Inhibition of CDK2/Cyclin A2 (unknown origin) at 200 nM preincubated for 10 mins followed by substrate addition and measured after 60 mins in presence of ATP by ADP-Glo reagent based assay relative to control; format: protein-complex assay; settings: time 70.0 min
[24] = target: BDNF/NT-3 growth factors receptor (Homo sapiens) (UniProt Q16620); test: Inhibition of TRKB (unknown origin) at 500 nM preincubated for 10 mins followed by substrate addition and measured after 60 mins in presence of ATP by ADP-Glo reagent based assay relative to control; settings: time 70.0 min
BDNF/NT-3 growth factors receptor (Homo sapiens), sequence (Q16620 32-822 limits assumed): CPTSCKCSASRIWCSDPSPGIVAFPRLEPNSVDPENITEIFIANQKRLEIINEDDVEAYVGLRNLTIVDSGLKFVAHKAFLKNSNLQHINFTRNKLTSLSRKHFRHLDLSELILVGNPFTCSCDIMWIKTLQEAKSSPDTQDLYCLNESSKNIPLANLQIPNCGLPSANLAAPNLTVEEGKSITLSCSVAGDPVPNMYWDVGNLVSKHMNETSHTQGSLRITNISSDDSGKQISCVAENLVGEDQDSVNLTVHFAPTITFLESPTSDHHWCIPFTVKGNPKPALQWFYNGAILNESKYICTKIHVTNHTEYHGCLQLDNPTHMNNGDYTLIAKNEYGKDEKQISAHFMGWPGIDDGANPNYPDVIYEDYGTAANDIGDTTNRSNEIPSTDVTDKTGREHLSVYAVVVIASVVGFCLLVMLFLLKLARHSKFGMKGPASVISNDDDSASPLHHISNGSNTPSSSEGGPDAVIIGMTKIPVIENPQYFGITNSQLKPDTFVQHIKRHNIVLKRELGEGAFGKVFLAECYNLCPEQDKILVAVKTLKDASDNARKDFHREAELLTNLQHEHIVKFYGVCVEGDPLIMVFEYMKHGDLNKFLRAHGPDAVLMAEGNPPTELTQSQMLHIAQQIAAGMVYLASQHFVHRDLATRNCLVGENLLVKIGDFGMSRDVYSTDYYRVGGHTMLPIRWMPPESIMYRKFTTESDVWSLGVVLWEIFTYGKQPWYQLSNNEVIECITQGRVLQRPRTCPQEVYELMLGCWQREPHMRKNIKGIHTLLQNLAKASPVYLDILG

CDK2/Cyclin A2 = CDK2/Cyclin A2 (Homo sapiens, UniProt P24941); test: Inhibition of CDK2/Cyclin A2 (unknown origin) preincubated for 10 mins followed by substrate addition and measured after 60 mins in presence of ATP by ADP-Glo reagent based assay; format: protein-complex assay
NCI-H1975 = test: Induction of apoptosis in human Osimertinib-resistant NCI-H1975 cell assessed as increase in percentage of apoptotic cells measured after 16 hrs by Annexin V-FITC and PI staining based analysis; format: functional; settings: dose 125-2000 nM
[25] = target: Dual specificity protein kinase CLK2 (Homo sapiens) (UniProt P49760); test: Inhibition of CLK2 (unknown origin) at 100 nM preincubated for 10 mins followed by substrate addition and measured after 60 mins in presence of ATP by ADP-Glo reagent based assay relative to control; settings: time 70.0 min
Dual specificity protein kinase CLK2 (Homo sapiens), sequence (P49760 whole entry, looked up): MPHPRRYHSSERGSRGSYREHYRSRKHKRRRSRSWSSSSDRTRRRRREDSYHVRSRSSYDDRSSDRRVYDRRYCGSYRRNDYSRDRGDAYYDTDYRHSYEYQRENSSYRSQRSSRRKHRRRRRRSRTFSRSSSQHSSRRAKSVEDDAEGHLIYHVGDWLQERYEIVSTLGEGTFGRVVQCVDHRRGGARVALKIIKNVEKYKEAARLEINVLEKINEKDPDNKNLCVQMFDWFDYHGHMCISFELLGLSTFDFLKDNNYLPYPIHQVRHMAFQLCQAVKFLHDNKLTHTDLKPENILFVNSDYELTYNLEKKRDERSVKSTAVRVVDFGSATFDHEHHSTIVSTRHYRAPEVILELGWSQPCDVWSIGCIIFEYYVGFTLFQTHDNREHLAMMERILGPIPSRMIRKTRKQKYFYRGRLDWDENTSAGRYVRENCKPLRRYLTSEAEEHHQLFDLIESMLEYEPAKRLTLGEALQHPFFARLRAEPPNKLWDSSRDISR

pIC50 (PC-9): 6.90
inhibition [3]: 15.7%
inhibition [4]: 11.6%
pIC50 (A549): 6.39
solubility thermodynamic [6]: 626 µg/mL (≈ 1130 µM)
inhibition [7]: 14.3%
bioavailability [8]: 8%
pIC50 (cells): 6.60
inhibition [13]: 29.3%
inhibition [14]: 50.1%
inhibition [19]: 21.2%
inhibition [22]: 96.5%
inhibition [23]: 39.1%
inhibition [24]: 80.7%
pIC50 (CDK2/Cyclin A2): 6.68
inhibition [25]: 32.8%
Structure (SMILES): O=C(NCCN1CCOCC1)c1ccc2cc1OCCCCCCOc1cc(ccc1F)-c1nc(ncc1F)N2
Activity [1]: 0.27%
Activity [2]: Non-Toxic
inhibition [5]: Dose-Dependent Effect
pIC50 [9]: 7.08
Activity [10]: Non-Toxic
pIC50 [11]: > 7.30
inhibition at 0.125 µM [12]: 100%
Activity [15]: Non-Toxic
Activity [16]: 1.97%
Activity [17]: 18.9%
pIC50 [18]: > 7.10
Activity [20]: 13.7%
viability at 0.125 µM [21]: 88.9%
Activity (NCI-H1975): Dose-Dependent Effect
